Source: patent US12209102B2, “Heterocyclic compounds and uses thereof” (Kumquat Biosciences Inc., priority 2022, dated 2025)

How the values were obtained:
K-Ras G12D = biological target: T1, K-Ras G12D (Homo sapiens, UniProt P01116, G12D); assay: HTRF resonance energy transfer assay, K-Ras G12D / SOS1 interaction; type: biochemical; conditions: HTRF assay of Example 5; read-out: IC50 against K-Ras G12D
T1 construct: made in house; host or cells: E. coli BL21 (DE3)
Outline: (§1)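 Compounds, tested in duplicate at 10 μM down to 0.01 μM, were read after about 10 min or more by HTRF as the 665/620 nm emission ratio (337 nm excitation) to derive IC50. This ratio reports FRET between an anti-GST-Eu donor on GST-K-Ras (wild-type or mutant) and an anti-6His-XL665 acceptor on His-hSOS1. Buffer: ~5 mM HEPES pH 7.4, 150 mM NaCl, 1 mM DTT, 0.05% BSA, 0.0025% Igepal.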

K-Ras WT = biological target: T2, K-Ras WT (Homo sapiens, UniProt P01116); assay: HTRF resonance energy transfer assay, K-Ras WT / SOS1 interaction; type: biochemical; conditions: HTRF assay of Example 5; read-out: IC50 against K-Ras WT
T2 construct: made in house; host or cells: E. coli BL21 (DE3)
Outline: as §1

K-Ras G12S = biological target: T3, K-Ras G12S (Homo sapiens, UniProt P01116, G12S); assay: HTRF resonance energy transfer assay, K-Ras G12S / SOS1 interaction; type: biochemical; conditions: HTRF assay of Example 5; read-out: IC50 against K-Ras G12S
T3 construct: made in house; host or cells: E. coli BL21 (DE3)
Outline: as §1

GP2D cells = assay: Ras cellular assay, growth of cells with K-Ras G12D mutation (CellTiter-Glo); type: cell-based; conditions: cell growth, Example 9, G12D mutation, read-out: IC50 against GP2D cells
SW620 cells = assay: Ras cellular assay, growth of cells with K-Ras G12V mutation (CellTiter-Glo); type: cell-based; conditions: Homo sapiens, SW-620; cell growth, Example 9, G12V mutation; read-out: IC50 against SW620 cells
Outline: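 IC50 values came from a four-parameter fit of CellTiter-Glo viability, read roughly 6 days after dosing with e.g. a 10-point threefold dilution series. G12V-mutant SW620 cells (e.g. 800 per well) had been plated the previous day in RPMI-1640/10% heat-inactivated FBS, on tissue culture-treated or ultra-low attachment plates.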

A549 cells = assay: Ras cellular assay, growth of cells with K-Ras G12S mutation (CellTiter-Glo); type: cell-based; conditions: Homo sapiens, cell growth, Example 9, G12S mutation, read-out: IC50 against A549 cells
Outline: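 Growth inhibition IC50 values come from four-parameter fits of CellTiter-Glo luminescence, read about 6 days after compound addition. G12S-mutant A549 cells (e.g. 800/well, RPMI-1640 + 10% heat-inactivated FBS) were plated in tissue-culture-treated or ultra-low-attachment 384-well format. Dosing began the following day with serial dilutions, e.g. 10 points, 3-fold.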

K-Ras G12V = biological target: T4, K-Ras G12V (Homo sapiens, UniProt P01116, G12V); assay: HTRF resonance energy transfer assay, K-Ras G12V / SOS1 interaction; type: biochemical; conditions: HTRF assay of Example 5; read-out: IC50 against K-Ras G12V
T4 construct: made in house; host or cells: E. coli BL21 (DE3)
Outline: as §1

T2 sequence (P01116 1-188 isoform P01116-2): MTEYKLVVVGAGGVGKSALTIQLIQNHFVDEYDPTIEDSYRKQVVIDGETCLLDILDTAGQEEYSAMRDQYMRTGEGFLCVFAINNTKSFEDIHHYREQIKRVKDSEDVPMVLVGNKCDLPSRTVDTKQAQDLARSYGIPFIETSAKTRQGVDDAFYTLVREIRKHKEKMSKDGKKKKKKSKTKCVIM
T3 sequence (P01116 1-188 isoform P01116-2 G12S): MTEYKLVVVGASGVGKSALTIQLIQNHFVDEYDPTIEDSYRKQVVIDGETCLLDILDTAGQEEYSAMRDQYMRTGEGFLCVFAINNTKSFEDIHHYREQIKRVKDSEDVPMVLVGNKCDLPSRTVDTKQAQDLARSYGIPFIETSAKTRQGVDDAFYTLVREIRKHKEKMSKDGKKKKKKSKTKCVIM
T1 sequence (P01116 1-188 isoform P01116-2 G12D): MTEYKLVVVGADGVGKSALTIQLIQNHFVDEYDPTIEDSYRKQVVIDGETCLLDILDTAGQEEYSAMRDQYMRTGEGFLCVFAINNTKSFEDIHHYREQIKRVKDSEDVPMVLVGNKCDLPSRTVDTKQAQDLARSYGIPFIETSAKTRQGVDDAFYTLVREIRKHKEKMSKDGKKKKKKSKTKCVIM
T4 sequence (P01116 1-188 isoform P01116-2 G12V): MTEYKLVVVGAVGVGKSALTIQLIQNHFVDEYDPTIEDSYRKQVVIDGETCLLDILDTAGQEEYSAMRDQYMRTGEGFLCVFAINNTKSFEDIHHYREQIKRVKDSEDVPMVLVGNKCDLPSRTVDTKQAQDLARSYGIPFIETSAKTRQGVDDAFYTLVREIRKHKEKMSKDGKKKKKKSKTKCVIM

Row | SMILES | IC50 (K-Ras G12D) [nM] | IC50 (K-Ras WT) [nM] | IC50 (K-Ras G12S) [nM] | IC50 (GP2D cells) [nM] | IC50 (SW620 cells) [nM] | IC50 (A549 cells) [nM] | IC50 (K-Ras G12V) [nM]
1 | CC(C)(C#N)CN1CCOc2c(Cl)c(-c3ccc(F)c4sc(N)c(C#N)c34)c(F)c3nc(OC[C@@]45CCCN4C[C@H](F)C5)nc1c23 [Compound 1048, 2-amino-4-(8-chloro-4-(2-cyano-2-methylpropyl)-10-fluoro-2-(((2R,7aS)-2-fluorotetrahydro-1H-pyrrolizin-7a(5H)-yl)methoxy)-5,6-dihydro-4H-[1,4]oxazepino[5,6,7-de]quinazolin-9-yl)-7-fluorobenzo[b]thiophene-3-carbonitrile] | < 100 | < 100 | < 100 | < 500 | < 5000 | < 5000 | < 100
2 | N#Cc1c(N)sc2c(F)ccc(-c3c(Cl)c4c5c(nc(OC[C@@]67CCCN6C[C@H](F)C7)nc5c3F)N(C3CCN(C=O)C3)CCO4)c12 (stereo partly drawn) [Compound 1052, 2-amino-4-(8-chloro-10-fluoro-2-(((2R,7aS)-2-fluorotetrahydro-1H-pyrrolizin-7a(5H)-yl)methoxy)-4-(1-formylpyrrolidin-3-yl)-5,6-dihydro-4H-[1,4]oxazepino[5,6,7-de]quinazolin-9-yl)-7-fluorobenzo[b]thiophene-3-carbonitrile] | < 100 | < 100 | < 100 | < 500 | < 5000 | < 5000 | < 100
3 | N#Cc1c(N)sc2c(F)ccc(-c3c(Cl)c4c5c(nc(OC[C@@]67CCCN6C[C@H](F)C7)nc5c3F)N(CC(F)F)[C@@H](C(F)F)CO4)c12 [Compound 1057, 2-amino-4-((5R)-8-chloro-4-(2,2-difluoroethyl)-5-(difluoromethyl)-10-fluoro-2-(((2R,7aS)-2-fluorotetrahydro-1H-pyrrolizin-7a(5H)-yl)methoxy)-5,6-dihydro-4H-[1,4]oxazepino[5,6,7-de]quinazolin-9-yl)-7-fluorobenzo[b]thiophene-3-carbonitrile] | < 100 | < 100 | < 100 | < 500 | < 5000 | < 5000 | < 100
4 | N#Cc1c(N)sc2c(F)ccc(-c3c(Cl)c4c5c(nc(OC[C@@]67CCCN6C[C@H](F)C7)nc5c3F)N(C3(C(F)F)CC3)CCO4)c12 [Compound 1060, 2-amino-4-(8-chloro-4-(1-(difluoromethyl)cyclopropyl)-10-fluoro-2-(((2R,7aS)-2-fluorotetrahydro-1H-pyrrolizin-7a(5H)-yl)methoxy)-5,6-dihydro-4H-[1,4]oxazepino[5,6,7-de]quinazolin-9-yl)-7-fluorobenzo[b]thiophene-3-carbonitrile] | < 100 | < 100 | < 100 | < 500 | < 5000 | < 5000 | < 100
5 | COCCN1CCOc2c(Cl)c(-c3ccc(F)c4sc(N)c(C#N)c34)c(F)c3nc(OC[C@@]45CCCN4C[C@H](F)C5)nc1c23 [Compound 1061, 2-amino-4-(8-chloro-10-fluoro-2-(((2R,7aS)-2-fluorotetrahydro-1H-pyrrolizin-7a(5H)-yl)methoxy)-4-(2-methoxyethyl)-5,6-dihydro-4H-[1,4]oxazepino[5,6,7-de]quinazolin-9-yl)-7-fluorobenzo[b]thiophene-3-carbonitrile] | < 100 | < 100 | < 100 | < 500 | < 5000 | < 5000 | < 100
6 | CN(C)C1(CN2CCOc3c(Cl)c(-c4ccc(F)c5sc(N)c(C#N)c45)c(F)c4nc(OC[C@@]56CCCN5C[C@H](F)C6)nc2c34)CCCC1 [Compound 1062, 2-amino-4-(8-chloro-4-((1-(dimethylamino)cyclopentyl)methyl)-10-fluoro-2-(((2R,7aS)-2-fluorotetrahydro-1H-pyrrolizin-7a(5H)-yl)methoxy)-5,6-dihydro-4H-[1,4]oxazepino[5,6,7-de]quinazolin-9-yl)-7-fluorobenzo[b]thiophene-3-carbonitrile] | < 100 | < 100 | < 100 | < 500 | < 5000 | < 5000 | < 100
7 | N#Cc1c(N)sc2c(F)ccc(-c3c(Cl)c4c5c(nc(OC[C@@]67CCCN6C[C@H](F)C7)nc5c3F)N(C3CCN(C(=O)C5CCO5)C3)CCO4)c12 (stereo partly drawn) [Compound 1064, 2-amino-4-(8-chloro-10-fluoro-2-(((2R,7aS)-2-fluorotetrahydro-1H-pyrrolizin-7a(5H)-yl)methoxy)-4-(1-(oxetane-2-carbonyl)pyrrolidin-3-yl)-5,6-dihydro-4H-[1,4]oxazepino[5,6,7-de]quinazolin-9-yl)-7-fluorobenzo[b]thiophene-3-carbonitrile] | < 100 | < 100 | < 100 | < 500 | < 5000 | < 5000 | < 100
8 | C[C@@H](O)[C@H]1COc2c(Cl)c(-c3ccc(F)c4sc(N)c(C#N)c34)c(F)c3nc(OC[C@@]45CCCN4C[C@H](F)C5)nc(c23)N1CC(F)F [Compound 1080, 2-amino-4-((5R)-8-chloro-4-(2,2-difluoroethyl)-10-fluoro-2-(((2R,7aS)-2-fluorotetrahydro-1H-pyrrolizin-7a(5H)-yl)methoxy)-5-((R)-1-hydroxyethyl)-5,6-dihydro-4H-[1,4]oxazepino[5,6,7-de]quinazolin-9-yl)-7-fluorobenzo[b]thiophene-3-carbonitrile] | < 100 | < 100 | < 100 | < 500 | < 5000 | < 5000 | < 100
9 | N#Cc1c(N)sc2c(F)ccc(-c3c(Cl)c4c5c(nc(OC[C@@]67CCCN6C[C@H](F)C7)nc5c3F)N([C@H]3CCN(C=O)C3)CCO4)c12 [Compound 1095, 2-amino-4-(8-chloro-10-fluoro-2-(((2R,7aS)-2-fluorotetrahydro-1H-pyrrolizin-7a(5H)-yl)methoxy)-4-((S)-1-formylpyrrolidin-3-yl)-5,6-dihydro-4H-[1,4]oxazepino[5,6,7-de]quinazolin-9-yl)-7-fluorobenzo[b]thiophene-3-carbonitrile] | < 100 | < 100 | < 100 | < 500 | < 5000 | < 5000 | < 100
10 | CC(F)(F)CN1CCOc2c(Cl)c(-c3ccc(F)c4sc(N)c(C#N)c34)c(F)c3nc(OC[C@@]45CCCN4C[C@H](F)C5)nc1c23 [Compound 1108, 2-amino-4-(8-chloro-4-(2,2-difluoropropyl)-10-fluoro-2-(((2R,7aS)-2-fluorotetrahydro-1H-pyrrolizin-7a(5H)-yl)methoxy)-5,6-dihydro-4H-[1,4]oxazepino[5,6,7-de]quinazolin-9-yl)-7-fluorobenzo[b]thiophene-3-carbonitrile] | < 100 | < 100 | < 100 | < 500 | < 5000 | < 5000 | < 100
